Results on five compounds are retold here after patent US12286632B2, “Rationally-designed synthetic peptide shuttle agents for delivering polypeptide cargos from an extracellular space to the cytosol and/or nucleus of a target eukaryotic cell, uses thereof, methods and kits relating to same” (Feldan Bio Inc., priority 2016, dated 2025).

For data set [1], the system named is HeLa cells. Kind of data set: Cytotoxic activity of NK92 against HeLa cells with GSK3 inhibitor. As to conditions: data not shown. Format: cell-based, Human.
In data set [2] the test system is NKG2A genomic DNA sequence. Briefly: T7E1 DNA cleavage assay / % INDELs after CRISPR/Cpf1-NLS delivery (NK and NK-92 cells). The format is cell-based, Human. As to conditions: gene target NKG2A, CRISPR/Cpf1 1.33 μM, crRNA 2 μM, peptide 6 μM, 1 min in PBS, n=2. An excerpt:
(§1) The T7 endonuclease I (T7E1) can be used to detect on-target CRISPR/Cas genome editing events in cultured cells. As an overview, genomic DNA from target cells is amplified by PCR. The PCR products are then denatured and reannealed to allow heteroduplex formation between wild-type DNA and CRISPR/Cas-mutated DNA. T7E1, which recognizes and cleaves mismatched DNA, is used to digest the heteroduplexes. The resulting cleaved and full-length PCR products are visualized by gel electrophoresis.
The T7E1 assay was performed with the Edit-R™ Synthetic crRNA Positive Controls (Dharmacon #U-007000-05) and the T7 Endonuclease I (NEB, Cat #M0302S). After the delivery of the CRISPR/Cas complex, cells were lysed in 100 μL of Phusion™ High-Fidelity DNA polymerase (NEB #M0530S) laboratory with additives. The cells were incubated for 15-30 minutes at 56° C., followed by deactivation for 5 minutes at 96° C. The plate was briefly centrifuged to collect the liquid at bottom of the wells. 50-μL PCR samples were set up for each sample to be analyzed. The PCR samples were heated to 95° C. for 10 minutes and then slowly (>15 minutes) cooled to room temperature. PCR product (-5 μL) was then separated on an agarose gel (2%) to confirm amplification. 15 μL of each reaction was incubated with T7E1 nuclease for 25 minutes at 37° C. […]

Data set [3] has as its system HeLa cells. Kind of data set: Plasmid DNA (pEGFP-C1) transfection by peptides (% cells with GFP signal, cell viability). As to conditions: DNA transfection in HeLa cells using peptides; pEGFP-C1 plasmid.
The test system of data set [4] is B2M genomic DNA sequence. Kind of data set: T7E1 DNA cleavage assay / % INDELs after CRISPR/Cas9-NLS or CRISPR/Cpf1-NLS delivery (HeLa, THP-1, NK, T cells). Format: cell-based, Human. As to conditions: CRISPR/Cpf1 1.33 μM, crRNA 2 μM; THP-1 and NK cells; different concentrations and exposure times.
Description: as §1
The T7E1 assay was performed with the Edit-R™ Synthetic crRNA Positive Controls (Dharmacon #U-007000-05) and the T7 Endonuclease I (NEB, Cat #M0302S). After the delivery of the CRISPR/Cas complex, cells were lysed in 100 μL of Phusion™ High-Fidelity DNA polymerase (NEB #M0530S) laboratory with additives. The cells were incubated for 15-30 minutes at 56° C., followed by deactivation for 5 minutes at 96° C. The plate was briefly centrifuged to collect the liquid at bottom of the wells. 50-μL PCR samples were set up for each sample to be analyzed. The PCR samples were heated to 95° C. for 10 minutes and then slowly (>15 minutes) cooled to room temperature. PCR product (-5 μL) was then separated on an agarose gel (2%) to confirm amplification. 15 μL of each reaction was incubated with T7E1 nuclease for 25 minutes at 37° C. Immediately, the entire reaction volume was run with the appropriate gel loading buffer on an agarose gel (2%).
Cas9-NLS recombinant protein was prepared as described in Example 13.1. Cpf1-NLS recombinant protein was prepared as described in Example G.2. A mix composed of a Cas9-NLS recombinant protein with its respective crRNAltracrRNA, or a Cpf1-NLS recombinant protein with its respective single guide crRNA(s) (see below) targeting a nucleotide sequence of the B2M gene, was co-incubated with different concentrations of the peptides FSD10, FSD18, FSD19, FSD21, FSD22, or FSD23 and incubated with HeLa, THP-1 or NK cells for 90 sec in PBS, or for 1 h in medium without serum, or for 48 h in medium with serum, using the transduction protocols as generally described in Example 3.1a. Cells were then washed with PBS and harvested to proceed with the T7E1 protocol assay as described in Example 13.4.
FIGS. 52A-52D show the results of the cleavage of the targeted genomic B2M DNA sequence after the delivery of CRISPR/Cpf1 (1.33 μM) with crRNA−1 or crRNA−2 (2 μM) in the absence (“-ctrl”) or in the presence of the peptides FSD10, FSD18, FSD19, FSD21 or FSD23 used at different concentrations, exposure times, and in different types of cells: THP-1 (FIG. 52A), and NK (FIGS. 52B, 52C, 52D), after separation by agarose gel electrophoresis. […] Gel lanes were loaded in duplicate. Thin dashed arrows indicate the bands corresponding to the target gene, and thick solid arrows indicate the bands corresponding to the cleavage products of this target gene, which indicate the successful transduction of fully functional CRISPR genome editing complexes. We used a Bio-Rad ImageLab™ software (Version 5.2.1, Bio-Rad, http://www.bio-rad.com/en-ca/product/image-lab-software?tab=Download) to quantify the relative signal intensities of each of the different bands directly on the gels. The sum of all the bands in a given lane corresponds to 100% of the signal, and the numerical value in italics at the bottom of each lane is the sum of the relative signals (%) of only the two cleavage product bands (thick solid arrows). No cleavage product bands were found in the negative controls (“-ctrl”, i.e., to cells that were exposed to CRISPR system in the absence of FSD peptide).
Cas9-NLS recombinant protein was prepared as described in Example 13.1. Cpf1-NLS recombinant protein was prepared as described in Example G.2. […]

The test system of data set [5] is THP-1 cells. Briefly: GFP-NLS protein transduction assay (flow cytometry: Pos cells %, viability %, relative fluorescence intensity; microscopy). To be noted: for Mean % cells with GFP signal (±St. Dev.; n = 3): THP-1 cells, GFP-NLS 10 μM. In general terms: Flow cytometry measures light scatter and fluorescence of single cells or particles in a stream.
Description: (§2) One day before the transduction assay was performed, cells in exponential growth phase were harvested and plated in a 96-well plate (20,000 cells per well). The cells were incubated overnight in appropriate growth media containing FBS (see Example 1). The next day, in separate sterile 1.5 mL tubes, cargo protein at the indicated concentration was pre-mixed (pre-incubated) for 1 or 10 min (depending on the protocol) at 37° C. with the peptide(s) to be tested shuttle agents (0.5 to 5 μM) in 50 μL of fresh medium without serum (unless otherwise specified). The media in wells was removed and the cells were washed three times with freshly prepared phosphate buffered saline (PBS) previously warmed at 37° C. The cells were incubated with the cargo protein/shuttle agent mixture at 37° C. for the indicated time (e.g., 1, 5 or 60 min). After the incubation, the cells were quickly washed three times with freshly prepared PBS and/or heparin (0.5 mg/mL) previously warmed at 37° C. The washes with heparin were required for human THP-1 blood cells to avoid undesired cell membrane-bound protein background in subsequent analyses (microscopy and flow cytometry). The cells were finally incubated in 50 μL of fresh medium with serum at 37° C. before analysis.
(§3) One day before the transduction assay was performed, suspension cells in exponential growth phase were harvested and plated in a 96-well plate (20,000 cells per well). The cells were incubated overnight in appropriate growth media containing serum (see Example 1). The next day, in separate sterile 1.5-mL tubes, peptides were diluted in sterile distilled water at room temperature (if the cargo is or comprised a nucleic acid, nuclease-free water was used). Cargo protein(s) were then added to the peptides and, if necessary, sterile PBS or cell culture medium (serum-free) was added to obtain the desired concentrations of shuttle agent and cargo in a sufficient final volume to resuspend the cells (e.g., 10 to 100 μL per well in a 96-well plate). The shuttle agent/peptide was then immediately used for experiments. At least three controls were included for each experiment, including: (1) peptide alone (e.g., at highest concentration tested); (2) cargo alone; and (3) without any cargo or shuttle agent. The cells were centrifuged for 2 minutes at 400g, the medium was then removed and the cells were resuspended in PBS previously warmed at 37° C. The cells were centrifuged again 2 minutes at 400g, the PBS removed, and the cells were resuspended with the cargo protein/peptide mixture at 37° C. for the desired length of time. After that, 200 μL of complete medium was added directly on the cells. Cells were centrifuged for 2 minutes at 400g and the medium was removed. The pellet was resuspended and washed in 200 μL of PBS previously warmed at 37° C. After another centrifugation, the PBS was removed and the cells were resuspended in 50 μL of trypsin-EDTA solution for 2 min. 200 of complete medium was directly added and cells were centrifuged for 2 minutes at 400g. The medium was removed and the cells were resuspended in 200 μL of complete medium.
(§4) The cells incubated in 50 μL of fresh medium were directly observed by microscopy (Bright-field and fluorescence) at different power fields (4× to 40×). The cells were observed using a CoolSNAP-PRO™ camera (Series A02D874021) and images were acquired using the Image-Proplus™ software.
(§5) The fluorescence of GFP was quantified using flow cytometry (Accuri C6, Becton, Dickinson and Company (BD)).
The nature of data set [6]: in vitro. To be noted: human, HeLa cells.
The nature of data set [7]: in vitro. To be noted: human, THP-1 cells.
Description: as §2, §3, §4, §5
The test system of data set [8] is HeLa cells. Briefly: GFP-NLS protein transduction assay (flow cytometry: Pos cells %, viability %, relative fluorescence intensity; microscopy). As to conditions: for FIG. 13B Cell viability (%) (±St Dev.; n = 3): Table 5.1; for FIG. 13B Cell viability (%) (±St Dev.; n = 3) / FIG. 21B Cell viability (%) (±St. Dev.; n = 3): GFP-NLS 5 μM, HeLa, 1 hour; for FIG. 21B Cell viability (%) (±St. Dev.; n = 3): Table 8.1.

For data set [9], the system named is HeLa cells. Kind of data set: Transduction of anti-NUP98 antibody, immuno-labelling and fluorescence microscopy. Format: cell-based, Human. To be noted: FSD19 7.5 μM; 4 hours. The procedure:
Anti-NUP98 antibody […] was co-incubated with 7.5 μM of FSD19 and exposed to HeLa cells for 4 hours. Cells are washed, fixed with paraformaldehyde 4%, permeabilized with 0.1% Triton™ and labeled with a fluorescently labeled (Alexa™ Fluor 488) goat anti-rat antibody. Antibody bound to the perinuclear membrane and cell nuclei were visualized by fluorescence microscopy at 20× (upper panels) and 40× (lower panels).

Data set [10] can be described thus: in vitro. To be noted: human, HeLa cells. The source holds these as a separate data set.
Data set [11] has as its system HeLa cells. Kind of data set: FITC-labeled anti-tubulin antibody transduction assay (flow cytometry, cell viability, microscopy). To be noted: FITC-labeled anti-tubulin antibody 0.5 μM, HeLa, 1 hour; shuttle 3.5 μM. How it is done:
The delivery and microscopy protocols are described in Example 3.
HeLa cells were cultured and tested in the protein transduction assay described in Example 3.1. […] The cells were subjected to flow cytometry analysis as described in Example 3.3.

Data set [12] has as its system HeLa cells. The format is cell-based, Human. To be noted: GFP (5 μM), 1 hour.
Description: One day before the transduction assay was performed, cells in exponential growth phase were harvested and plated in a 96-well plate (20,000 cells per well). The cells were incubated overnight in appropriate growth media containing FBS (see Example 1). The next day, in separate sterile 1.5 mL tubes, cargo protein at the indicated concentration was pre-mixed (pre-incubated) for 1 or 10 min (depending on the protocol) at 37° C. with the peptide(s) to be tested shuttle agents (0.5 to 5 μM) in 50 μL of fresh medium without serum (unless otherwise specified). The media in wells was removed and the cells were washed three times with freshly prepared phosphate buffered saline (PBS) previously warmed at 37° C. The cells were incubated with the cargo protein/shuttle agent mixture at 37° C. for the indicated time (e.g., 1, 5 or 60 min). After the incubation, the cells were quickly washed three times with freshly prepared PBS and/or heparin (0.5 mg/mL) previously warmed at 37° C. […] The cells were finally incubated in 50 μL of fresh medium with serum at 37° C. before analysis.
The Olympus filter U-MF2™ (C54942-Exc495/Em510) was used to observe GFP and FITC-labeled antibody fluorescent signals. […] The Olympus filter U-MWU2™ (Exc330/Em385) was used to observe DAPI or Blue Hoechst fluorescent signals. The cells incubated in 50 μL of fresh medium were directly observed by microscopy (Bright-field and fluorescence) at different power fields (4× to 40×). The cells were observed using a CoolSNAP-PRO™ camera (Series A02D874021) and images were acquired using the Image-Proplus™ software.
The fluorescence of GFP was quantified using flow cytometry (Accuri C6, Becton, Dickinson and Company (BD)). Untreated cells were used to establish a baseline in order to quantify the increased fluorescence due to the internalization of the fluorescent protein in treated cells. The percentage of cells with a fluorescence signal above the maximum fluorescence of untreated cells, “mean %” or “Pos cells (%)”, is used to identify positive fluorescent cells. “Relative fluorescence intensity (FL1−A)” corresponds to the mean of all fluorescence intensities from each cell with a fluorescent signal after fluorescent protein delivery with the shuttle agent. Also, the events scanned by flow cytometry corresponding to cells (size and granularity) were analyzed. The cellular toxicity (% cell viability) was monitored comparing the percentage of cells in the total events scanned of treated cells comparatively to untreated cells.
The subject of data set [13] is HeLa cells. Kind of data set: TAT-GFP protein transduction assay (flow cytometry, cell viability, fluorescence microscopy). The format is cell-based, Human. As to conditions: TAT-GFP 5 μM, 1 hour. The procedure:
Briefly, TAT-GFP recombinant protein (5 μM) was co-incubated with different concentrations of CM18-TAT-Cys (0, 0.5, 1, 3, or 5 μM) and then exposed to HeLa cells for 1 hour.

For data set [14], the system named is primary myoblasts. Briefly: Calcein endosomal escape assay, quantification by flow cytometry (mean counts, Mean Factor). Format: cell-based, Human. As to conditions: myoblast cells. An excerpt:
Calcein is a membrane-impermeable fluorescent molecule that is readily internalized by cells when administered to the extracellular medium. Its fluorescence is […] and calcein self-quenches at higher concentrations. Once internalized, calcein becomes sequestered at high concentrations in cell endosomes and can be visualized by fluorescence microscopy as a punctate pattern. Following endosomal leakage, calcein is released to the cell cytoplasm and this release can be visualized by fluorescence microscopy as a diffuse pattern.
The cells were allowed to attach by incubating overnight in appropriate growth media, as described in Example 1. The next day, the media in wells was removed and replaced with 50 μL of fresh media without serum containing 62.5 μg/mL (100 μM) of calcein, except for HEK293A (250 μg/mL, 400 μM). […]
Untreated calcein-loaded cells were used as a control to distinguish cells having a baseline of fluorescence due to endosomally-trapped calcein from cells having increased fluorescence due to release of calcein from endosomes. Fluorescence signal means (“mean counts”) were analyzed for endosomal escape quantification. In some cases, the “Mean Factor” was calculated, which corresponds to the fold-increase of the mean counts relative to control (untreated calcein-loaded cells). […] The cellular mortality was monitored with the percentage of cells in the total events scanned. […]

For orientation: viability means a per cent measure of how many cells are alive, often set against a control. The low end stands for a greater loss of cells, the high end for better survival.

Where two headings read alike, the source gives them in different places. Ends that are not written are not given here.

For `Cn1cc(C2=C(c3ccc(Cl)cc3Cl)C(=O)NC2=O)c2ccccc21` [SB216763], in data set [1], the “effect on cytotoxic activity of NK92” value is reported as “enhances the cytotoxic activity of NK92 against HeLa cells”.
As for “FSD100 (HHHHHHFLKIWSRLIKIWTQGRRKGAQAAFRHHHHHH)”, the “% INDELs” value in data set [2] amounted to 16%.
In the case of “FSD101 (HHHHHHRFAAQAGKRRGQTWIKILRSWIKLF)”, the “% INDELs” value in data set [2] stood at 17%.
For the compound “HHHHHHLLKLWSRLLKTWTQGRRLKAKSAQASTRQAHHHHHH [FSD19]”, the “Mean % cells with GFP signal (±St. Dev.; n = 3)” value in data set [3] is reported as 0.24 ± 0.00%; in [5] (peptide 2 μM, incubation 0.5 min) it was 55.4 ± 4.63%; in data set [5] (peptide 5 μM, incubation 0.25 min) it was 61.5 ± 6.07%; in data set [8] (Table B2, HeLa cells, GFP-NLS cargo), 55.17 ± 4.62%. Also, the “delivery of CRISPR/Cpf1 complex, cleavage of genomic B2M (in words)” value in data set [4] is on record as “successful delivery of the CRISPR genome-editing complexes to the nucleus”. Also, the viability in data set [6] stood at 97.4 ± 2.07%; in data set [10] (Cell viability (%) (±St Dev.; n = 3)), 80.6 ± 5.36%. In data set [7], this compound yielded a viability at 15 s, 5 µM of 60.5 ± 5.71%. Further, in [7], the viability at 0.5 min, 2 µM turned out to be 68.7 ± 4.29%. Besides, the “functionality of transduced anti-NUP98 antibody (microscopy)” value in data set [9] is on record as “anti-NUP98 antibody retained its functionality inside the cell following its transduction”.
Turning to “KWKLFKKIGAVLKVLTTGYGRKKRRQRRRC [CM18-TAT-Cys]”, the “FIG. 17B Cell viability (%) (±St Dev.; n = 3)” value in [5] (Table 5.5, GFP-NLS 5 μM, THP-1, 5 minutes, shuttle 1 μM) is reported as 85 ± 6%. The “FIG. 19B Cell viability (%) (± St. Dev.; n = 3)” value in data set [11] was determined as 95 ± 4.06%. For the same compound, the viability in data set [6] came out at 96.3 ± 1.86%. The “Cell viability (%)” value in [12] (shuttle 0.5 μM) was found to be 88.4 ± 6%; in data set [12] (shuttle 1 μM), 90 ± 6%; in data set [12] (shuttle 3 μM), 91 ± 5%; in [12] (shuttle 5 μM), 90 ± 7%. The “FIG. 13B Cell viability (%) (±St Dev.; n = 3)” value in [8] (shuttle 0.5 μM) is given as 87.6 ± 4%; in data set [8] (shuttle 1 μM) it was 93 ± 8%; in data set [8] (shuttle 5 μM), 93 ± 4%. In addition, the figures for the “FIG. 21B Cell viability (%) (±St. Dev.; n = 3)” value in [8] (shuttle 3 μM) and in data set [8] (shuttle 5 μM) were 89 ± 5.37% and 81 ± 6.34%, respectively. Further, the “FIG. 11B Cell viability (%) (±St. Dev.; n = 3)” value in data set [13] (shuttle 0.5 μM) was found to be 84.36 ± 5%; in data set [13] (shuttle 1 μM), 89.26 ± 5.26%; in data set [13] (shuttle 3 μM), 93.18 ± 6.28%; in [13] (shuttle 5 μM) it was 95.14 ± 5.28%. The “peptide concentrations associated with an increase in cell toxicity” value in data set [14] was “above 10 μM”. This compound also came in with a viability at 1 h, 1 µM in [10] of 94 ± 4.28%.
